The source of these data is patent US20190134005A1 (BioMarin Pharmaceutical Inc., priority 2016, published 2019).

The target of this experiment is T1, human CGT (Homo sapiens, UniProt Q16880).
T1 sequence (Q16880 21-541): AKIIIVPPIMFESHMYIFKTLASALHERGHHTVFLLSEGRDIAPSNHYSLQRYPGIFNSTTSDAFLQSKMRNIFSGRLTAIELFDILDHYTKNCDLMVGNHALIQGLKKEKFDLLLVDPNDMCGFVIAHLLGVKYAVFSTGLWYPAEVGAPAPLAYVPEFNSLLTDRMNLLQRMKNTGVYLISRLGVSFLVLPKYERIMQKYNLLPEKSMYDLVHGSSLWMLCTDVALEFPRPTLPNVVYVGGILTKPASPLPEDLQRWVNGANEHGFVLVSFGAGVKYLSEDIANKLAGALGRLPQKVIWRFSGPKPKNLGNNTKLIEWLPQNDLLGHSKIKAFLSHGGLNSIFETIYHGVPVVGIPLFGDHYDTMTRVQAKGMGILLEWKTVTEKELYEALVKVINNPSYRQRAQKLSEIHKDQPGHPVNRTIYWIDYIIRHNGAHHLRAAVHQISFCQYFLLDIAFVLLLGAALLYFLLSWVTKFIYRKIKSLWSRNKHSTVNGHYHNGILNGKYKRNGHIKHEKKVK
In words: Assay 1: CGT Enzymatic Assay (RapidFire/MS/MS, 0.01% Tween 80). As to conditions: Table 1, Compounds of Formula (I) and Formula (II); CGT enzymatic assay, C6-NBD-dihydro-galactosylceramide readout; read-out: IC50. It counts as biochemical.

With `Cc1ccc(N2C(=O)N(c3ccc(Cl)cc3)C(O)(c3cccc(C#N)c3)C23CCC3)cc1` (centres unmarked) [Example 316, 3-(7-(4-chlorophenyl)-8-hydroxy-6-oxo-5-(p-tolyl)-5,7-diazaspiro[3.4]octan-8-yl)benzonitrile], the IC50 (as a rule, the concentration that gives 50% inhibition) is less than 1000 nM.
Next, `Cc1ccc(N2C(=O)N(c3ccc(Cl)cc3)C(O)(c3cccc(C#N)c3)C2(C)C)cc1` (centres unmarked) [Example 317, 3-(3-(4-chlorophenyl)-4-hydroxy-5,5-dimethyl-2-oxo-1-(p-tolyl)imidazolidin-4-yl)benzonitrile]: less than 1000 nM.
Next, `Cc1ccc(N2C(=O)N(c3ccc(Cl)cc3)C(O)(c3cccc(OC(F)(F)F)c3)C2(C)C)cc1` (centres unmarked) [Example 318, 1-(4-chlorophenyl)-5-hydroxy-4,4-dimethyl-3-(p-tolyl)-5-(3-(trifluoromethoxy)phenyl)imidazolidin-2-one]: less than 1000 nM; `CC[C@@]1(C)N(c2ccc(C#N)cc2)C(=O)N(c2ccc(C#N)cc2)C1(O)c1cccc(OC(F)(F)F)c1` (stereo partly drawn) [Example 319-1, 4,4′-((4R)-4-ethyl-5-hydroxy-4-methyl-2-oxo-5-(3-(trifluoromethoxy)phenyl)imidazolidine-1,3-diyl)dibenzonitrile]: less than 1000 nM.
Next, `CC[C@]1(C)N(c2ccc(C#N)cc2)C(=O)N(c2ccc(C#N)cc2)C1(O)c1cccc(OC(F)(F)F)c1` (stereo partly drawn) [Example 319-2, 4′-((4S)-4-ethyl-5-hydroxy-4-methyl-2-oxo-5-(3-(trifluoromethoxy)phenyl)imidazolidine-1,3-diyl)dibenzonitrile]: less than 1000 nM.
As to `CCC[C@]1(C)N(c2ccc(C#N)cc2)C(=O)N(c2ccc(C#N)cc2)C1(O)c1cccc(OC(F)(F)F)c1` (stereo partly drawn) [Example 320-2, 4,4′-((5S)-4-hydroxy-5-methyl-2-oxo-5-propyl-4-(3-(trifluoromethoxy)phenyl)imidazolidine-1,3-diyl)dibenzonitrile], the IC50 was less than 1000 nM.
With `CCC1(CC)N(c2ccc(Cl)cc2)C(=O)N(c2ccc(Cl)cc2)C1(O)c1cccc(C#N)c1` (centres unmarked) [Example 321, 3-(1,3-bis(4-chlorophenyl)-5,5-diethyl-4-hydroxy-2-oxoimidazolidin-4-yl)benzonitrile] the figure was less than 1000 nM; with `CC1(C)N(c2ccc(C#N)cc2)C(=O)N(c2ccc(Cl)cc2)C1(O)c1cccc(OC(F)(F)F)c1` (centres unmarked) [Example 322, 4-(3-(4-chlorophenyl)-4-hydroxy-5,5-dimethyl-2-oxo-4-(3-(trifluoromethoxy)phenyl)imidazolidin-1-yl)benzonitrile], less than 1000 nM; with `CC1(C)N(c2ccc(Cl)cc2)C(=O)N(c2ccc(C#N)cc2)C1(O)c1cccc(C#N)c1` (centres unmarked) [Example 323, 3-(1-(4-chlorophenyl)-3-(4-cyanophenyl)-4-hydroxy-5,5-dimethyl-2-oxoimidazolidin-4-yl)benzonitrile], less than 1000 nM.
As to `CC1(C)N(c2ccc(Cl)cc2)C(=O)N(c2ccc(Cl)cc2)C1(O)c1cccc(C2CCO2)c1` (centres unmarked) [Example 324-1, 1,3-bis(4-chlorophenyl)-4-hydroxy-5,5-dimethyl-4-(3-(oxetan-2-yl)phenyl)imidazolidin-2-one], the IC50 was less than 1000 nM.
Next, `CC1(C)N(c2ccc(Cl)cc2)C(=O)N(c2ccc(Cl)cc2)C1(O)c1cccc(C2COC2)c1` (centres unmarked) [Example 324-2, 1,3-bis(4-chlorophenyl)-4-hydroxy-5,5-dimethyl-4-(3-(oxetan-3-yl)phenyl)imidazolidin-2-one]: 1000 to 10000 nM; `N#Cc1ccc(N2C(=O)N(c3ccc(Br)cc3)C(O)(c3cccc(OC(F)(F)F)c3)C23CCCC3)cc1` (centres unmarked) [Example 325, 4-(3-(4-bromophenyl)-4-hydroxy-2-oxo-4-(3-(trifluoromethoxy)phenyl)-1,3-diazaspiro[4.4]nonan-1-yl)benzonitrile]: less than 1000 nM; `N#Cc1ccc(N2C(=O)N(c3ccc(C#N)cc3)C(O)(c3cccc(OC(F)(F)F)c3)C23CCCC3)cc1` (centres unmarked) [Example 326, 4,4′-(4-hydroxy-2-oxo-4-(3-(trifluoromethoxy)phenyl)-1,3-diazaspiro[4.4]nonane-1,3-diyl)dibenzonitrile]: less than 1000 nM.
With `Cc1ccc(N2C(=O)N(c3ccc(C)cc3)C(O)(c3cccc(OC(F)(F)F)c3)C23CCCC3)cc1` (centres unmarked) [Example 327, 4-hydroxy-1,3-di-p-tolyl-4-(3-(trifluoromethoxy)phenyl)-1,3-diazaspiro[4.4]nonan-2-one] the figure was less than 1000 nM; with `COc1ccc(N2C(=O)N(c3ccc(OC)cc3)C(O)(c3cccc(C#N)c3)C2(C)C)cc1` (centres unmarked) [Example 328, 3-(4-hydroxy-1,3-bis(4-methoxyphenyl)-5,5-dimethyl-2-oxoimidazolidin-4-yl)benzonitrile], 1000 to 10000 nM.
Take `COc1ccc(N2C(=O)N(c3ccc(OC)cc3)C(O)(c3cccc(OC(F)(F)F)c3)[C@@H]2C(C)C)cc1` (stereo partly drawn) [Example 329-1, (5S)-4-hydroxy-5-isopropyl-1,3-bis(4-methoxyphenyl)-4-(3-(trifluoromethoxy)phenyl)imidazolidin-2-one]: the IC50 was 1000 to 10000 nM.
As to `COc1ccc(N2C(=O)N(c3ccc(OC)cc3)C(O)(c3cccc(OC(F)(F)F)c3)[C@H]2C(C)C)cc1` (stereo partly drawn) [Example 329-2, (5R)-4-hydroxy-5-isopropyl-1,3-bis(4-methoxyphenyl)-4-(3-(trifluoromethoxy)phenyl)imidazolidin-2-one], the IC50 was less than 1000 nM.
With `COc1ccc(N2C(=O)N(c3ccc(OC)cc3)C(O)(c3cccc(C#N)c3)C2C(C)C)cc1` (centres unmarked) [Example 330, 3-(4-hydroxy-5-isopropyl-1,3-bis(4-methoxyphenyl)-2-oxoimidazolidin-4-yl)benzonitrile] the figure was less than 1000 nM; with `C[C@]1(C(F)(F)F)N(c2ccc(Cl)cc2)C(=O)N(c2ccc(Cl)cc2)C1(O)c1cc(C#N)cc(C#N)c1` (stereo partly drawn) [Example 331-1, 5-((5S)-1,3-bis(4-chlorophenyl)-4-hydroxy-5-methyl-2-oxo-5-(trifluoromethyl)imidazolidin-4-yl)isophthalonitrile], less than 1000 nM; with `C[C@@]1(C(F)(F)F)N(c2ccc(Cl)cc2)C(=O)N(c2ccc(Cl)cc2)C1(O)c1cc(C#N)cc(C#N)c1` (stereo partly drawn) [Example 331-2, 5-((5R)-1,3-bis(4-chlorophenyl)-4-hydroxy-5-methyl-2-oxo-5-(trifluoromethyl)imidazolidin-4-yl)isophthalonitrile], less than 1000 nM.
For the compound `O=C1N(c2ccc(Cl)cc2)C2(CCC2)C(O)(c2cccc(OC(F)(F)F)c2)N1c1ccccc1` (centres unmarked) [Example 332, 5-(4-chlorophenyl)-8-hydroxy-7-phenyl-8-(3-(trifluoromethoxy)phenyl)-5,7-diazaspiro[3.4]octan-6-one], the IC50 was less than 1000 nM.
With `Cc1ccc(N2C(=O)N(c3ccc(Cl)cc3)C3(CCC3)C2(O)c2cccc(OC(F)(F)F)c2)cc1` (centres unmarked) [Example 333, 5-(4-chlorophenyl)-8-hydroxy-7-(p-tolyl)-8-(3-(trifluoromethoxy)phenyl)-5,7-diazaspiro[3.4]octan-6-one] the figure was less than 1000 nM.
With `O=C1N(c2ccccc2)C2(CCC2)C(O)(c2cccc(OC(F)(F)F)c2)N1c1ccc(Cl)cc1` (centres unmarked) [Example 334, 7-(4-chlorophenyl)-8-hydroxy-5-phenyl-8-(3-(trifluoromethoxy)phenyl)-5,7-diazaspiro[3.4]octan-6-one], the IC50 is less than 1000 nM.
Next, `N#Cc1ccc(N2C(=O)N(c3ccccc3)C3(CCC3)C2(O)c2cccc(OC(F)(F)F)c2)cc1` (centres unmarked) [Example 335, 4-(8-hydroxy-6-oxo-5-phenyl-8-(3-(trifluoromethoxy)phenyl)-5,7-diazaspiro[3.4]octan-7-yl)benzonitrile]: less than 1000 nM.
With `N#Cc1ccc(N2C(=O)N(c3ccccc3)C(O)(c3cccc(OC(F)(F)F)c3)C23CCC3)cc1` (centres unmarked) [Example 336, 4-(8-hydroxy-6-oxo-7-phenyl-8-(3-(trifluoromethoxy)phenyl)-5,7-diazaspiro[3.4]octan-5-yl)benzonitrile] the figure was less than 1000 nM.
Next, `CCc1ccc(N2C(=O)N(c3ccc(C#N)cc3)C3(COC3)C2(O)c2cccc(OC(F)(F)F)c2)cc1` (centres unmarked) [Example 337, 4-(7-(4-ethylphenyl)-8-hydroxy-6-oxo-8-(3-(trifluoromethoxy)phenyl)-2-oxa-5,7-diazaspiro[3.4]octan-5-yl)benzonitrile]: less than 1000 nM.
